Reference: PMC8416343, “A Facile Procedure for One-Pot Stable Conjugation of Two Proglucagon Cysteine-Containing Peptide Analogs” (Frontiers in Endocrinology, 2021)

How the values were obtained:
[1] = Hydrolysis of thiosuccinimide / chemical stability of linker and conjugates, LC-MS; details: for Time to complete hydrolysis of thiosuccinimide: pH 9.6, carbonate-diluted reaction mixture, LC-MS
human GcgR = target: T1, human GcgR (Homo sapiens, UniProt P47871); assay: Glucagon receptor activation, cAMP response element-luciferase reporter in BHK cells; format: cell-based; details: for Statistical significance of EC50 difference at human glucagon receptor: between peptide 4 and peptide 5, Student's unpaired t-test, n=6; for EC50: stably transfected BHK cells over-expressing human GcgR, CRE-luciferase, 3 h at 37°C, assay buffer with 1% ovalbumin, 12-point 3.5-fold dilution, n=6, kind of +/- not stated
T1 construct: expressed in transfected cells; host or cells: BHK cells (stably transfected, with CRE-firefly luciferase reporter)
Description: (§1) Receptor activation data was collected utilizing stably transfected BHK cells over-expressing either the human GLP-1R or GcgR and firefly luciferase reporter gene linked to the cAMP response element. The cells were maintained in continuous culture in DMEM supplemented with 10% HI FBS, 300 ug/mL hygromycin, and 500 ug/mL G418 at 37°C with 5% CO2. Cells were plated in the supplemented DMEM at 5,000 cells per well in 96 well poly-D-Lysine coated Corning BioCoat plates and incubated overnight at 37°C with 5% CO2. After the overnight incubation, the media was removed from the cell plates, washed once with DPBS, and 50uL of the assay buffer (DMEM without phenol red, 10 mM Hepes, 1x Glutamax, 1% ovalbumin, and 0.1% Pluronic F-68) was added to the plate. In a separate 96 well plate, the test compounds were serially diluted by 3.5-fold across the row of the plate to create a 12-point dilution curve. […] After the incubation, the assay plates were washed once in DPBS. Following the wash, 100 uL of DPBS was added to each well of the plates followed by 100 uL of the steadylite plus reagent (PerkinElmer). The assay plates were covered to protect from light, incubated at room temperature with shaking at 250 rpm for 30 minutes and read using a microtiter plate reader. The data was plotted using GraphPad Prism 9.0.1 with the nonlinear regression log(agonist) vs. response analysis to obtain the EC50 for each compound. Additionally, GraphPad Prism was used to complete the statistical analysis of the EC50 values with n=6 was using the Student’s unpaired t-test analysis.

[2] = pH 9.6
human GLP-1R = target: T2, human GLP-1R (Homo sapiens, UniProt P43220); assay: GLP-1 receptor activation, cAMP response element-luciferase reporter in BHK cells; format: cell-based; details: for Statistical significance of EC50 difference at human GLP-1 receptor: between human GLP-1, peptide 4 and peptide 5, Student's unpaired t-test, n=6; for EC50: stably transfected BHK cells over-expressing human GLP-1R, CRE-luciferase, 3 h at 37°C, assay buffer with 1% ovalbumin, 12-point 3.5-fold dilution, n=6, kind of +/- not stated
T2 construct: expressed in transfected cells; host or cells: BHK cells (stably transfected, with CRE-firefly luciferase reporter)
Description: as §1

[3] = test system: human GLP-1 and glucagon receptors; assay: Glucagon and GLP-1 receptor activation, both receptors together (summary statements); format: cell-based; details: heterodimers of glucagon and GLP-1 analogs; conclusion
Description: as §1, with “The data was plotted using GraphPad Prism 9.0.1 with the nonlinear regression log(agonist) vs. response analysis to obtain the EC50 for each compound. Additionally, GraphPad Prism was used to complete the statistical analysis of the EC50 values with n=6 was using the Student’s unpaired t-test analysis.” left out

T1 sequence (P47871 26-477): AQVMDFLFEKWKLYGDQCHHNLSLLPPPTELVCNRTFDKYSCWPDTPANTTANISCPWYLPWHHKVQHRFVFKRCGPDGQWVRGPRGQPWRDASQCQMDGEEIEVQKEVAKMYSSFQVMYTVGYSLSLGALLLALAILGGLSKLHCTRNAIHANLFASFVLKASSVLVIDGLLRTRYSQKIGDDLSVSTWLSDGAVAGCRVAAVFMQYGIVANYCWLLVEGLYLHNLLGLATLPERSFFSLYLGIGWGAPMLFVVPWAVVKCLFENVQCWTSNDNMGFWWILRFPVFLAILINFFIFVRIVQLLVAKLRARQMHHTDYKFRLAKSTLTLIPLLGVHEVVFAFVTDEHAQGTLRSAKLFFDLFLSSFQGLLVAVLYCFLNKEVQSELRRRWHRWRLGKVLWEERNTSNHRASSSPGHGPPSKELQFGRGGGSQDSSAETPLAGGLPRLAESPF
T2 sequence (P43220 24-463): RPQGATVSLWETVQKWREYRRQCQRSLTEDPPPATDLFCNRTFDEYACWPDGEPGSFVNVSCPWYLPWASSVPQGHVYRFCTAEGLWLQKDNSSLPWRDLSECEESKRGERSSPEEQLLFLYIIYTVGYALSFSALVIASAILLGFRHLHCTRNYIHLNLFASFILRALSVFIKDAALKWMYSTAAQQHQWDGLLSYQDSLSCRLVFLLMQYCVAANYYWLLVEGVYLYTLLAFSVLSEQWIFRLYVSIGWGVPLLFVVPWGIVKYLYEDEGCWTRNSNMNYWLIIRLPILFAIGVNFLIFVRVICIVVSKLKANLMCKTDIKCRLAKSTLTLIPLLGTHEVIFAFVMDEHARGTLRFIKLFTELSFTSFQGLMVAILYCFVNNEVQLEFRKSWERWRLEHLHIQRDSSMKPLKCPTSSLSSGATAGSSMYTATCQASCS

Row | SMILES | Stability of linker ([1]; pH range of 6.0-8.3, compared with the self-hydrolysable maleimido linker) | Statistical significance of EC50 difference at human glucagon receptor (human GcgR) | EC50 (human GcgR) | Degradation of the conjugate during hydrolysis [2] | Statistical significance of EC50 difference at human GLP-1 receptor (human GLP-1R) | EC50 (human GLP-1R) | GLP-1 receptor activity relative to glucagon [3] | Thiosuccinimide hydrolysis at pH 8.3 ([1]; pH 8.3, prolonged alkylation time) | Time to complete hydrolysis of thiosuccinimide ([1]; 37°C) | Time to complete hydrolysis of thiosuccinimide ([1]; room temperature) | Potency at human GCG receptor, in words (human GcgR; BHK cells, human GcgR, reduced versus native human glucagon, comparable between peptides 4 and 5) | Potency in stimulating cAMP at GLP-1 receptors, in words (human GLP-1R; compared with native GLP-1, BHK cells, human GLP-1R)
1 | O=C(CI)NCCN1C(=O)C=CC1=O [Linker 1, N-(2-(2,5-dioxo-2,5-dihydro-1H-pyrrol-1-yl)ethyl)-2-iodoacetamide] | enhanced stability |  |  |  |  |  |  |  |  |  |  | 
2 | CC[C@H](C)[C@H](NC(=O)[C@H](Cc1ccccc1)NC(=O)[C@H](CCC(=O)O)NC(=O)[C@H](CCCCN)NC(=O)[C@H](C)NC(=O)[C@H](C)NC(=O)[C@H](CCC(N)=O)NC(=O)[C@H](CCC(=O)O)NC(=O)[C@H](CCC(=O)O)NC(=O)[C@H](CC(C)C)NC(=O)[C@H](Cc1ccc(O)cc1)NC(=O)[C@H](CO)NC(=O)[C@H](CO)NC(=O)[C@@H](NC(=O)[C@H](CC(=O)O)NC(=O)[C@H](CO)NC(=O)[C@@H](NC(=O)[C@H](Cc1ccccc1)NC(=O)[C@@H](NC(=O)CNC(=O)[C@H](CCC(=O)O)NC(=O)C(C)(C)NC(=O)[C@@H](N)Cc1c[nH]cn1)[C@@H](C)O)[C@@H](C)O)C(C)C)C(=O)N[C@@H](C)C(=O)N[C@@H](Cc1c[nH]c2ccccc12)C(=O)N[C@@H](CC(C)C)C(=O)N[C@H](C(=O)N[C@@H](CCCCN)C(=O)NCC(=O)NCC(=O)N1CCC[C@H]1C(=O)N[C@@H](CO)C(=O)N[C@@H](CO)C(=O)NCC(=O)N[C@@H](C)C(=O)N1CCC[C@H]1C(=O)N1CCC[C@H]1C(=O)N1CCC[C@H]1C(=O)N[C@@H](CO)C(=O)N[C@@H](CSCC(=O)NCCNC(=O)C(CC(=O)O)SC[C@H](NC(=O)[C@H](CO)NC(=O)[C@@H]1CCCN1C(=O)[C@@H]1CCCN1C(=O)[C@@H]1CCCN1C(=O)[C@H](C)NC(=O)CNC(=O)[C@H](CO)NC(=O)[C@H](CO)NC(=O)[C@@H]1CCCN1C(=O)CNC(=O)CNC(=O)[C@H](CC(N)=O)NC(=O)[C@H](CCSC)NC(=O)[C@H](CC(C)C)NC(=O)[C@H](Cc1c[nH]c2ccccc12)NC(=O)[C@H](CCC(N)=O)NC(=O)[C@@H](NC(=O)[C@H](Cc1ccccc1)NC(=O)[C@H](CC(=O)O)NC(=O)[C@H](CCC(N)=O)NC(=O)[C@H](C)NC(=O)[C@H](CCCNC(=N)N)NC(=O)[C@H](CCCNC(=N)N)NC(=O)[C@H](CO)NC(=O)[C@H](CC(=O)O)NC(=O)[C@H](CC(C)C)NC(=O)[C@H](Cc1ccc(O)cc1)NC(=O)[C@H](CCCCN)NC(=O)[C@H](CO)NC(=O)[C@H](Cc1ccc(O)cc1)NC(=O)[C@H](CC(=O)O)NC(=O)[C@H](CO)NC(=O)[C@@H](NC(=O)[C@H](Cc1ccccc1)NC(=O)[C@@H](NC(=O)CNC(=O)[C@H](CCC(N)=O)NC(=O)[C@H](CO)NC(=O)[C@@H](N)Cc1c[nH]cn1)[C@@H](C)O)[C@@H](C)O)C(C)C)C(N)=O)C(N)=O)C(C)C (stereo partly shown) [Peptide 5] |  | no statistical significance | 323 ± 187 pM | without detectable degradation | no statistical significance | 4.85 ± 4.29 pM |  |  |  |  |  | 
3 | CC[C@H](C)[C@H](NC(=O)[C@H](Cc1ccccc1)NC(=O)[C@H](CCC(=O)O)NC(=O)[C@H](CCCCN)NC(=O)[C@H](C)NC(=O)[C@H](C)NC(=O)[C@H](CCC(N)=O)NC(=O)[C@H](CCC(=O)O)NC(=O)[C@H](CCC(=O)O)NC(=O)[C@H](CC(C)C)NC(=O)[C@H](Cc1ccc(O)cc1)NC(=O)[C@H](CO)NC(=O)[C@H](CO)NC(=O)[C@@H](NC(=O)[C@H](CC(=O)O)NC(=O)[C@H](CO)NC(=O)[C@@H](NC(=O)[C@H](Cc1ccccc1)NC(=O)[C@@H](NC(=O)CNC(=O)[C@H](CCC(=O)O)NC(=O)C(C)(C)NC(=O)[C@@H](N)Cc1c[nH]cn1)[C@@H](C)O)[C@@H](C)O)C(C)C)C(=O)N[C@@H](C)C(=O)N[C@@H](Cc1c[nH]c2ccccc12)C(=O)N[C@@H](CC(C)C)C(=O)N[C@H](C(=O)N[C@@H](CCCCN)C(=O)NCC(=O)NCC(=O)N1CCC[C@H]1C(=O)N[C@@H](CO)C(=O)N[C@@H](CO)C(=O)NCC(=O)N[C@@H](C)C(=O)N1CCC[C@H]1C(=O)N1CCC[C@H]1C(=O)N1CCC[C@H]1C(=O)N[C@@H](CO)C(=O)N[C@@H](CSCC(=O)NCCN1C(=O)CC(SC[C@H](NC(=O)[C@H](CO)NC(=O)[C@@H]2CCCN2C(=O)[C@@H]2CCCN2C(=O)[C@@H]2CCCN2C(=O)[C@H](C)NC(=O)CNC(=O)[C@H](CO)NC(=O)[C@H](CO)NC(=O)[C@@H]2CCCN2C(=O)CNC(=O)CNC(=O)[C@H](CC(N)=O)NC(=O)[C@H](CCSC)NC(=O)[C@H](CC(C)C)NC(=O)[C@H](Cc2c[nH]c3ccccc23)NC(=O)[C@H](CCC(N)=O)NC(=O)[C@@H](NC(=O)[C@H](Cc2ccccc2)NC(=O)[C@H](CC(=O)O)NC(=O)[C@H](CCC(N)=O)NC(=O)[C@H](C)NC(=O)[C@H](CCCNC(=N)N)NC(=O)[C@H](CCCNC(=N)N)NC(=O)[C@H](CO)NC(=O)[C@H](CC(=O)O)NC(=O)[C@H](CC(C)C)NC(=O)[C@H](Cc2ccc(O)cc2)NC(=O)[C@H](CCCCN)NC(=O)[C@H](CO)NC(=O)[C@H](Cc2ccc(O)cc2)NC(=O)[C@H](CC(=O)O)NC(=O)[C@H](CO)NC(=O)[C@@H](NC(=O)[C@H](Cc2ccccc2)NC(=O)[C@@H](NC(=O)CNC(=O)[C@H](CCC(N)=O)NC(=O)[C@H](CO)NC(=O)[C@@H](N)Cc2c[nH]cn2)[C@@H](C)O)[C@@H](C)O)C(C)C)C(N)=O)C1=O)C(N)=O)C(C)C (stereo partly shown) [Peptide 4] |  | no statistical significance | 607 ± 428 pM |  | no statistical significance | 4.68 ± 1.53 pM | much enhanced GLP-1 receptor activity relative to glucagon | did not result in sufficient thiosuccinimide hydrolysis | ≤ 1 h | approximately 12 hours | reduced but comparable potency | comparable potency to native GLP-1
